Source: patent US6683069B1, “Methods and compositions for reducing UV-induced inhibition of collagen synthesis in human skin” (Regents of the University of Michigan, priority 1998, dated 2004)

Assays:
Type I procollagen mRNA = test: In situ hybridization for Type I procollagen mRNA in biopsies of retinoid-pretreated, UV-exposed human skin; type: in vivo; settings: 0.1% topical
Experimental: (§1) We tested whether retinoids, in particular all-trans retinoic acid, would have any effect on the loss of procollagen mRNA and/or the procollagen proteins in human skin after exposure to UV radiation. (Unless otherwise noted, the retinoic acid used in the experiments described herein was all-trans.) Separate areas of skin from each of our volunteers were treated with either 0.1% retinoic acid in vehicle or with vehicle alone; the vehicle was composed of a mixture of ethanol and polyethylene glycol in a 70:30 volumetric ratio. Thereafter, these areas of skin were exposed to 2 MEDs (typically) of UV radiation and then biopsied at specific times after the exposure; the biopsies were analyzed as described previously. The site of the volunteers' skin to be exposed to UV radiation was treated prior to UV exposure with either the all-trans retinoic acid or the control vehicle. […]
(§2) In Situ Hybridization: Digoxigenin-containing sense and antisense riboprobes to detect human type I and Type III procollagen RNA (mRNA) were synthesized with the use of T3 and T7 ribonucleic acid polymerases. […] Hybridization signals were detected immunohistochemically with the use of alkaline phosphatase-conjugated antidigoxigenin antibody.

[1] = system: Type I procollagen protein; test: Immunohistological staining for Type I procollagen protein in biopsies of retinoid-pretreated, UV-exposed human skin; type: in vivo; settings: 0.1% topical
Experimental: as §1, with “previously.” for “previously. The site of the volunteers' skin to be exposed to UV radiation was treated prior to UV exposure with either the all-trans retinoic acid or the control vehicle.”
(§3) Immunohistology: Immunihistology of Type I and Type III pN collagens was performed as has been described by Griffiths, C. […] Type I pN collagen was detected with mouse monoclonal IgG1 antibody (SP1.D8; available from Univ. of Iowa Dept. of Biological Sciences Developmental Studies Hybridoma Bank, Iowa City, Iowa) raised against the aminopropeptide region of human Type I procollagen (Foellmer, H. G., et al., Euro. J. Biochm., 134:183-189 (1983)). Type III pN collagen was detected with affinity-purified rabbit polyclonal antibody to aminopropeptide of Type III procollagen (identical to that used for Western analysis). […]

[2] = system: Type I procollagen and pN collagen precursor protein; test: Western analysis of Type I procollagen protein and pN precursor protein in retinoic acid-pretreated, UV-exposed human skin; type: in vivo; settings: 0.1% topical, FIG. 12
Experimental: We tested whether retinoids, in particular all-trans retinoic acid, would have any effect on the loss of procollagen mRNA and/or the procollagen proteins in human skin after exposure to UV radiation. (Unless otherwise noted, the retinoic acid used in the experiments described herein was all-trans.) Separate areas of skin from each of our volunteers were treated with either 0.1% retinoic acid in vehicle or with vehicle alone; the vehicle was composed of a mixture of ethanol and polyethylene glycol in a 70:30 volumetric ratio. Thereafter, these areas of skin were exposed to 2 MEDs (typically) of UV radiation and then biopsied at specific times after the exposure; the biopsies were analyzed as described previously. The site of the volunteers' skin to be exposed to UV radiation was treated prior to UV exposure with either the all-trans retinoic acid or the control vehicle. […] Nevertheless, it should be understood that a period of pretreatment with retinoid more than eight and less than twenty-four hours before UV exposure may likely be sufficient to prevent the reduction in collagen biosynthesis we have observed. Furthermore, it should be understood that in all of the following examples treatment with a retinoid (e.g., “retinoic acid-treated”) or the vehicle (e.g.,. “vehicle-treated”) should each be understood as pretreatment 24 hours before UV exposure. […]
(§4) Western analysis of proteins. Type I procollagen and pN collagen precursor protein, as well as Type III procollagen were detected in skin extracts by Western analysis as described by G. J. Fisher et al. (in “Immunological identification and functional quantitation of retinoic acid and retinoid X receptor proteins in human skin,” J. Biol. Chem., 269:20629-20635 (1994)).
(§5) Immunoreactive proteins were visualized by enhanced chemiluminescence detection and quantified by laser densitometry, or by enhanced chemifluorescence detection and quantified by a Storm imager (Molecular Dynamics, Sunnyvale, Calif.).

[3] = system: Type III procollagen mRNA; test: In situ hybridization for Type III procollagen mRNA in biopsies of retinoid-pretreated, UV-exposed human skin; type: in vivo; settings: 0.1% topical, pretreatment 24 h before UV; FIG. 13D
Experimental: as §1, §2

[4] = system: Type III procollagen protein; test: Immunohistological staining for Type III procollagen protein in biopsies of retinoid-pretreated, UV-exposed human skin; type: in vivo; settings: 0.1% topical, pretreatment 24 h before 2 MEDs UV, biopsy 24 h after exposure; FIG. 14D
Experimental: as §1, with “previously.” for “previously. The site of the volunteers' skin to be exposed to UV radiation was treated prior to UV exposure with either the all-trans retinoic acid or the control vehicle.”
as §3

[5] = system: Type III procollagen protein and pN collagen precursor protein; test: Western analysis of Type III procollagen protein and pN precursor protein in retinoic acid-pretreated, UV-exposed human skin; type: in vivo; settings: 0.1% topical, FIG. 15
Experimental: as §1, with “previously.” for “previously. The site of the volunteers' skin to be exposed to UV radiation was treated prior to UV exposure with either the all-trans retinoic acid or the control vehicle.”
as §4, §5

soluble collagen = test: Soluble collagen (hydroxyproline content) in retinoid-pretreated, UV-exposed human skin in vivo; settings: 0.1% topical
Experimental: We tested whether retinoids, in particular all-trans retinoic acid, would have any effect on the loss of procollagen mRNA and/or the procollagen proteins in human skin after exposure to UV radiation. (Unless otherwise noted, the retinoic acid used in the experiments described herein was all-trans.) Separate areas of skin from each of our volunteers were treated with either 0.1% retinoic acid in vehicle or with vehicle alone; the vehicle was composed of a mixture of ethanol and polyethylene glycol in a 70:30 volumetric ratio. Thereafter, these areas of skin were exposed to 2 MEDs (typically) of UV radiation and then biopsied at specific times after the exposure; the biopsies were analyzed as described previously. The site of the volunteers' skin to be exposed to UV radiation was treated prior to UV exposure with either the all-trans retinoic acid or the control vehicle. […] Nevertheless, it should be understood that a period of pretreatment with retinoid more than eight and less than twenty-four hours before UV exposure may likely be sufficient to prevent the reduction in collagen biosynthesis we have observed. Furthermore, it should be understood that in all of the following examples treatment with a retinoid (e.g., “retinoic acid-treated”) or the vehicle (e.g.,. “vehicle-treated”) should each be understood as pretreatment 24 hours before UV exposure.
We also assayed the biopsies from our volunteers for soluble collagen (measured as hydroxyproline content) in vehicle- and retinoid-treated skin, both before and after UV exposure. […] After UV exposure, the vehicle-treated skin (VEH+UV) had only about 40% of the soluble collagen as was present prior to exposure. The retinoid-treated area (RA+UV) still had reduced amounts of soluble collagen when compared with skin prior to UV exposure, yet the levels were almost twice what was found in the vehicle-treated/UV-exposed skin.
As mentioned above, the area of the volunteers' skin to be treated with a retinoid prior to UV exposure was pretreated 24 hours prior to exposure. We pretreated certain volunteer's sun-protected skin with 0.1% all trans retinoic acid 8 hours prior to exposure to 2 MEDs of UV radiation. […] Thus, as mentioned above, to prevent UV-induced loss of collagen synthesis using a retinoid, pretreatment 24 hours before exposure yields the desired prophylactic effect, whereas pretreatment 8 hours before exposure yields no significant prophylaxis.
Hydroxyproline Analysis: hydroxyproline analysis using the Amino Acid Analyzer Model 420H (Applied Biosystems, Foster City, Calif.) automates precolumn phenylthiocarbamyl-amino acid (PTC-AA) analysis. The Model 420H analyzer first hydrolyzes proteins to liberate free amino acids. Once hydrolyzed, the free amino acids are derivatized with phenylisothiocynanate (PITC) to form PTC-AA derivatives. A reverse-phase column in a temperature-controlled oven separates the PTC-AAs. Concentration of hydroxyproline in the skin extract was determined based upon a hydroxyproline standard.

[6] = pretreatment 24 h before 2 MEDs UV, biopsy 24 h after exposure

## CC1=C(/C=C/C(C)=C/C=C/C(C)=C/C(=O)O)C(C)(C)CCC1 [all-trans retinoic acid]
Type I procollagen mRNA; 24 h after treatment, no UV, FIG. 10B vs 10A
  Type I procollagen mRNA expression in fibroblasts vs vehicle-treated skin, prior to UV exposure: essentially the same in both
Type I procollagen mRNA; pretreatment 24 h before UV, FIG. 10D
  Type I procollagen mRNA expression after UV exposure: does not appear to evidence any loss in the mRNA signalling
[1]; no UV, FIG. 11B vs 11A
  Type I procollagen protein staining vs vehicle-treated skin, prior to UV exposure: no appreciable difference
[1]; pretreatment 24 h before 2 MED UV, biopsy 24 h after exposure, FIG. 11D
  Type I procollagen protein staining after UV vs before UV exposure: comparable, though slightly reduced
[2]; no UV, vehicle normalized to 1.0
  Amounts of Type I procollagen and pN precursor protein vs vehicle-treated skin, unexposed: essentially the same amounts
[2]; [6]
  Type I procollagen protein after UV, relative to control: greater than 80 % of the control
  pN collagen precursor protein (Type I) after UV, relative to control: greater than 80 % of the control
[3]
  Reduction in expression of Type III procollagen mRNA after UV exposure: little, if any, reduction
[4]
  Type III procollagen protein staining after UV vs prior to UV exposure: almost the same pattern and intensity of staining
[5]; no UV
  Amounts of Type III procollagen protein and pN precursor protein vs vehicle-treated skin, prior to UV exposure: essentially the same amounts
[5]; pretreatment 24 h before 2 MEDs UV, RA+UV
  Amounts of Type III procollagen protein and pN precursor protein after UV vs control and retinoic acid-treated areas prior to exposure: essentially the same amounts
Soluble collagen; 24 h pretreatment, no UV, FIG. 16
  Soluble collagen (hydroxyproline content) vs vehicle-treated skin, prior to UV exposure: about the same
Soluble collagen; after 8 hours, no UV, FIG. 17
  Soluble collagen (hydroxyproline content) vs vehicle-treated skin, without UV exposure: the same
Soluble collagen; pretreatment 8 hours before 2 MEDs UV, FIG. 17
  Soluble collagen (hydroxyproline content) 24 hours after UV exposure vs vehicle-treated skin: essentially the same
Soluble collagen; pretreatment 24 h before UV, RA+UV, FIG. 16
  Soluble collagen (hydroxyproline content) after UV, relative to vehicle-treated/UV-exposed skin: almost twice
Soluble collagen; pretreatment 24 hours before UV exposure
  Prevention of UV-induced reduction in collagen biosynthesis: a reduction in collagen biosynthesis was prevented
Soluble collagen; pretreatment eight hours before UV exposure
  Prevention of UV-induced reduction in collagen synthesis: did not appear to significantly prevent reduction in collagen synthesis
